{
  "source": "patent US20230413860A1",
  "about": "“Abscisic Acid-Mixed Pig Feed” (Sumitomo Chemical Company, Limited, priority 2020, published 2023)",
  "format_in_all_cases": "in vivo, pig",
  "key": {"[1]": {"test": "Effect of abscisic acid on reducing productivity decrease due to heat stress in young pigs", "details": "for Feed Conversion Rate (Feed Intake/Body Weight Gain, Average value) / Feed Intake (Average value) / Body Weight Gain (Average value): high temperature (30.6° C.), young pigs; for Body Weight Gain (Average value): age 35 to 70 days", "protocol": "Eighty four (84) of crossbred young pigs (LWD) at an age of 28 days were employed in this test. Body weight of the each young pigs was measured and seven animals were assigned to one section considering the average body weight across the sections was equal, and the three sections (replicates) were assigned to a total four test groups. The test period was from 28 to 70 day-old, and S-abscisic acid was used as a test substance. The S-ABA was added to the feed at the concentrations shown in the Table 6, and the feed containing S-ABA was fed daily to the pigs at the age of 28 to 70 days. The high temperature environment was carried out from the age of 36 to 70 days of the pigs.\nThe following four groups were set. Three sections (repetitions) per one group was set, which were assigned to each test group as indicated in the below Table.\n(§1) The pigs were raised at the optimal temperature from the age of 28 to 35 day-old. After the age of 36 days the pigs of the Test group 1 were housed at an optimal temperature and the pigs of the Test groups 2 to 4 were exposed to a particular high temperature by air conditioner. The raising temperature were measured with a thermo-hygrometer or a data logger which was installed near the center of the raising room, and then recorded. The average room temperature of the optimal temperature group was 26.1° C., and the average room temperature of the […] temperature group was 30.6° C.\n(§2) As a feed, similarly to the test example 1, an early feed, middle feed or late feed of MAMACOLO which was manufactured by FEED ONE CO., LTD. (2-6, Higashifukasiba Kamisu-shi, Ibaraki) was given by ad libitum feeding. A drinking water was freely ingested by a waterer with a picker. The early feed was given until the age of 35 days of the pig, the middle feed was given at the age of from 36 days to 42 days, and the late feed was given at the age of post 43 days.\n• (i) Clinical symptoms: observed daily. • (ii) Body weight: Body weight was measured for each individual at the age of 28, 35 and 70 days old, and the average weight gain per a section from the age of 35 to 70 days during the test period was calculated. • (iii) Feed intake: Feed intake was measured daily by each section, and feed intake for one animal per a week was calculated. Also, feed conversion rate (feed intake/body weight gain) was calculated from “Average feed intake” and “Average body weight gain per section” during the test period."}, "reduced glutathione": {"tested_on": "reduced glutathione", "test": "Effect of abscisic acid on increasing production of reduced glutathione in small intestine of gilts", "excerpt": "Twelve (12) of gilts at an age of 8 months were employed in this test. The S-ABA (particle size of 0.1 to 1 mm) in the amounts as shown in Table 11 was supplemented in the feed for about 40 days from the day of artificial insemination.\n• (i) Clinical symptoms: observed daily. • (ii) Sampling of intestinal tracts: The pig was dissected on the 40th day of pregnancy, and the small intestine was sampled.\nThe measurement results of reduced glutathione in a small intestine after the administration for about 40 days are shown in Table 12. Using a commercially available glutathione measuring kit (manufactured by DOJINDO CHEMICALS Inc.; […]), the reduced glutathione contained in 1 g of small intestine tissue was determined quantitatively."}, "[2]": {"test": "Effect of abscisic acid on reducing productivity decrease due to cold stress in young pigs", "details": "for Feed Conversion Rate (Feed Intake/Body Weight Gain, Average value) / Feed Intake (Average value) / Body Weight Gain (Average value): low temperature (20.4° C.), young pigs; for Body Weight Gain (Average value): age 35 to 70 days", "protocol": "Eighty four (84) crossbred young pigs (LWD) at an age of 28 days were employed in this test. Body weight of the each young pigs was measured and seven animals were assigned to one section considering the average body weight across the sections was equal, and the three sections (replicates) were assigned to a total four test groups. The test period was from 28 to 70 day-old, and S-abscisic acid was (hereinafter, referred to as “S-ABA”) used as a test substance. The S-ABA was added to the feed at the concentrations shown in Table 1, and the feed containing S-ABA was fed daily to the pigs at the age of 28 to 70 days. The low temperature environment was carried out from the age of 36 to 70 days of the pigs.\nThe following four groups were set.\nas §1, with “days,” for “days”, “low” for “high”, “20.4°” for “30.6°”\nas §2, with “feed,” for “feed, similarly to the test example 1,”\n• (i) Clinical symptoms: observed daily. • (ii) Body weight: Body weight was measured for each individual at the age of 28, 35 and 70 days old, and the average weight gain per a section from the age of 35 to 70 days during the test period was calculated. • (iii) Feed intake: Feed intake was measured daily for each section, and feed intake for one animal per a week was calculated. Also, feed conversion rate (feed intake/body weight gain) was calculated from “Average feed intake” and “Average body weight gain per section” during the test period."}},
  "data": [
    {"compound": "CC1=CC(=O)CC(C)(C)[C@@]1(O)/C=C/C(C)=C\\C(=O)O", "note": "[ABA, (S)-(+)-abscisic acid]", "values": [
      {"measurement": "Clinical symptoms", "setting": "[1]; 0.1, 0.5 or 1 ppm in feed, age 28 to 70 days, observed daily, high temperature", "result": "No abnormality was seen"},
      {"measurement": "Feed Conversion Rate (Feed Intake/Body Weight Gain, Average value)", "setting": "[1]; 0.1 ppm ABA in feed", "result": 4.54},
      {"measurement": "Feed Intake (Average value)", "setting": "[1]; 0.1 ppm ABA in feed", "result": 30.7, "unit": "kg"},
      {"measurement": "Body Weight Gain (Average value)", "setting": "[1]; 0.1 ppm ABA in feed", "result": 18.04, "unit": "kg"},
      {"measurement": "Feed Conversion Rate (Feed Intake/Body Weight Gain, Average value)", "setting": "[1]; 0.5 ppm ABA in feed", "result": 4.25},
      {"measurement": "Feed Intake (Average value)", "setting": "[1]; 0.5 ppm ABA in feed", "result": 29.7, "unit": "kg"},
      {"measurement": "Body Weight Gain (Average value)", "setting": "[1]; 0.5 ppm ABA in feed", "result": 18.25, "unit": "kg"},
      {"measurement": "Feed Conversion Rate (Feed Intake/Body Weight Gain, Average value)", "setting": "[1]; 1.0 ppm ABA in feed", "result": 3.91},
      {"measurement": "Feed Intake (Average value)", "setting": "[1]; 1.0 ppm ABA in feed", "result": 32.9, "unit": "kg"},
      {"measurement": "Body Weight Gain (Average value)", "setting": "[1]; 1.0 ppm ABA in feed", "result": 19.02, "unit": "kg"},
      {"measurement": "Reduced glutathione in small intestine tissue compared to the no dosing S-ABA group", "setting": "reduced glutathione; 10 ppm S-ABA in feed for about 40 days", "result": "increased amount of reduced glutathione in small intestine tissue significantly"},
      {"measurement": "Reduced glutathione Amount", "setting": "reduced glutathione; 10 ppm S-ABA in feed for about 40 days from artificial insemination, small intestine tissue", "result": 0.234, "unit": "μmol/g wet tissue"},
      {"measurement": "Clinical symptoms", "setting": "reduced glutathione; 10 ppm S-ABA in feed for about 40 days, observed daily", "result": "No abnormality was seen"},
      {"measurement": "Clinical symptoms", "setting": "[2]; 0.1, 0.5 or 1 ppm in feed, age 28 to 70 days, observed daily, low temperature", "result": "No abnormality was seen"},
      {"measurement": "Feed Conversion Rate (Feed Intake/Body Weight Gain, Average value)", "setting": "[2]; 0.1 ppm ABA in feed", "result": 4.40},
      {"measurement": "Feed Intake (Average value)", "setting": "[2]; 0.1 ppm ABA in feed", "result": 29.81, "unit": "kg"},
      {"measurement": "Body Weight Gain (Average value)", "setting": "[2]; 0.1 ppm ABA in feed", "result": 16.99, "unit": "kg"},
      {"measurement": "Feed Conversion Rate (Feed Intake/Body Weight Gain, Average value)", "setting": "[2]; 0.5 ppm ABA in feed", "result": 4.29},
      {"measurement": "Feed Intake (Average value)", "setting": "[2]; 0.5 ppm ABA in feed", "result": 29.91, "unit": "kg"},
      {"measurement": "Body Weight Gain (Average value)", "setting": "[2]; 0.5 ppm ABA in feed", "result": 16.40, "unit": "kg"},
      {"measurement": "Feed Conversion Rate (Feed Intake/Body Weight Gain, Average value)", "setting": "[2]; 1.0 ppm ABA in feed", "result": 4.41},
      {"measurement": "Feed Intake (Average value)", "setting": "[2]; 1.0 ppm ABA in feed", "result": 30.30, "unit": "kg"},
      {"measurement": "Body Weight Gain (Average value)", "setting": "[2]; 1.0 ppm ABA in feed", "result": 17.00, "unit": "kg"}
    ]}
  ]
}
